Test results from patent US10653658B2, “Biofilm inhibiting compositions enhancing weight gain in livestock” (Akeso Biomedical, Inc., priority 2015, dated 2020).

Experiments:
Salmonella = Salmonella cfu/g of caeca at day 42 (Example 10); format: in vivo; settings: in feed
Procedure: (§1) A study was performed to evaluate growth promotion and reduction of Campylobacter carriage using FeTyr in Ross 308 male broilers with 7 treatment groups. Each treatment group comprised eight replicates of 10 birds per pen (80 birds/treatment group), with 2 control groups and […]. All the test groups and both of the control groups were exposed at day 20 of the trial to dirty litter, which tested positive for Campylobacter. This method was used to provide a more natural method to Campylobacter challenge the birds. Thus there were two positive controls where each treatment group was challenged with Campylobacter, and five treatment groups that were all challenged with Campylobacter. The total number of birds used in the 7 treatment groups was 560.
(§2) At day 20, litter, which was naturally Campylobacter-contaminated, was tested to confirm the presence of Campylobacter, and then added (approximately 2 kg/pen) to the litter in all pens. At day 42, caecal samples were taken and tested for Campylobacter, E. coli and Salmonella enumeration.

Campylobacter [1] = test: Campylobacter cfu/g of caeca at day 42 (Example 10); format: in vivo; settings: in feed
Procedure: as §1, §2

E. coli = E. coli cfu/g of caeca at day 42 (Example 10); format: in vivo
Procedure: as §1, §2

[2] = Growth performance of broilers given FeQ or FeTyr in water/feed, dirty litter Campylobacter challenge at day 20 (Example 1); format: in vivo, Ross 308 male broilers
Procedure: (§3) A study was performed to evaluate growth promotion and reduction of Campylobacter carriage using FeQ and FeTyr in Ross 308 male broilers with 7 treatment groups. Each treatment group comprised four replicates of 10 birds per pen (40 birds/treatment group and 4 pens of 10 birds/treatment group), with 2 control groups and 5 test groups. All the test groups and one of the control groups were exposed at day 20 of the trial to dirty litter, which tested positive for Campylobacter. This method was used to provide a more natural method to Campylobacter challenge the birds. Thus there was a positive control where one treatment group was challenged with Campylobacter and one negative control group where the birds were not challenged, and five treatment groups that were all challenged with Campylobacter. The total number of birds used in the 7 treatment groups was 280. Treatment group 1 was a negative control where birds just received the commercial feed, and were not challenged with dirty litter containing Campylobacter. Treatment group 2 was the positive control where the birds received the commercial feed, and were challenged with dirty litter containing Campylobacter at day 20. Treatment group 3 received 0.22 g/L of FeQ in their drinking water and 0.22 g/Kg FeQ in their feed during the entire trial, and was challenged with dirty litter containing Campylobacter at day 20. Treatment group 5 received 0.22 g/L of FeQ in their drinking water during the entire trial, and was challenged with dirty litter containing Campylobacter at day 20. Treatment group 6 received 0.22 g/kg FeQ in their feed during the entire trial, and was challenged with dirty litter containing Campylobacter at day 20. Treatment group 7 received 0.022 g/L FeQ in their drinking water during the entire trial, and was challenged with dirty litter containing Campylobacter at day 20. Treatment group 8 received 0.02 g/L FeTyr in their drinking water during the entire trial, and was challenged with dirty litter containing Campylobacter at day 20. The FeTyr was pre-dissolved in DMSO, and diluted to provide a solution of 0.02 g/L of FeTyr in water. (An additional treatment group 4 was terminated due to solubility issues.)
The birds were fed with a commercial three-phase feeding program using starter, grower and finisher feeds with formulations shown in Table 2. All diets had coccidiostat (MAXIBAN® at 0.0625% in starter and […] and MONTEBAN® at 0.06% in finisher phase). Xylanase (RONOZYME® WX at 200 g per ton) and phytase (RONOZYME® P at 150 grams per ton) were added to all diets.
The feeding program is show in Table 3. The birds were reared in floor pens to day 42, and fed starter, grower and finisher feed at day 0 to 11, 11 to 24, and 24 to 42 days, respectively. All birds were weighed individually and feed weigh backs recorded per pen at day 0, 11, 21, 24 and 42 days.
Prior to challenging the chickens with dirty litter containing Campylobacter at day 20, each pen was tested for Campylobacter using cloacal swabs. All pens tested negative for Campylobacter prior to the challenge. At day 20, litter, which was naturally Campylobacter-contaminated, was tested to confirm the presence of Campylobacter, and then added (approximately 2 kg/pen) to the litter in all pens except in pens for treatment group 1 (the negative control). At day 28, the pen litter was sampled to confirm the presence or absence of Campylobacter. At day 41 and 42, caecal samples were taken from 3 birds per pen (12 birds per treatment group) and tested for Campylobacter enumeration. At day 42, digesta, fecal samples, and caecal content was taken from all birds, and pooled per pen. Two birds per pen were also taken from treatment groups 1-3, euthanized, and blood samples taken. […]

Campylobacter [3] = test: Campylobacter carriage in chickens, cfu/g of droppings and caeca at day 42 (Example 1); format: in vivo
Procedure: as §3
Prior to challenging the chickens with dirty litter containing Campylobacter at day 20, each pen was tested for Campylobacter using cloacal swabs. All pens tested negative for Campylobacter prior to the challenge. At day 20, litter, which was naturally Campylobacter-contaminated, was tested to confirm the presence of Campylobacter, and then added (approximately 2 kg/pen) to the litter in all pens except in pens for treatment group 1 (the negative control). At day 28, the pen litter was sampled to confirm the presence or absence of Campylobacter. At day 41 and 42, caecal samples were taken from 3 birds per pen (12 birds per treatment group) and tested for Campylobacter enumeration. At day 42, digesta, fecal samples, and caecal content was taken from all birds, and pooled per pen. Two birds per pen were also taken from treatment groups 1-3, euthanized, and blood samples taken. Samples were analyzed for blood chemistry, including analysis for alkaline phosphatase, aspartate amino transferase, alanine amino transferase, gamma-glutamyl transferase, lactate dehydrogenase, total protein, albumin, globulin, amylase and glucose.

[4] = Dose ranging study of FeTyr (TYPLEX) in feed, zootechnical performance of broilers, dirty litter challenge at day 20 (Example 10); format: in vivo, Ross 308 male broilers; settings: all treatment groups, in feed
Procedure: as §1
Treatment group 1 was a positive control where birds just received the commercial feed, and were challenged with dirty litter containing Campylobacter at day 20. Treatment group 2 received 0.01 g/kg of TYPLEX (FeTyr) in their feed, and were challenged with dirty litter containing Campylobacter at day 20. Treatment group 3 received 0.02 g/kg of TYPLEX (FeTyr) in their feed, and was challenged with dirty litter containing Campylobacter at day 20. Treatment group 4 received 0.05 g/kg of TYPLEX (FeTyr) in their feed, and was challenged with dirty litter containing Campylobacter at day 20. Treatment group 5 received 0.1 g/kg of TYPLEX (FeTyr) in their feed, and was challenged with dirty litter containing Campylobacter at day 20. Treatment group 6 received 0.2 g/kg of TYPLEX (FeTyr) in their feed, and was challenged with dirty litter containing Campylobacter at day 20. […] The birds were fed with a commercial three-phase feeding program using starter, grower and finisher feeds as described in Example 1. The birds were reared in floor pens to day 42, and fed starter, grower and finisher feed at day 0 to 11, 11 to 24, and 24 to 42 days, respectively. All birds were weighed individually and feed weigh backs recorded per pen at day 0, 11, 21, 24 and 42 days.
as §2
In order to minimize risk of cross-contamination, standard industry biosecurity measures were used including: disinfecting boots, changing overshoes and gloves between pens/treatments, entering Campylobacter negative pens before entering Campylobacter positive pens, and leaving adjacent pens empty. Daily health, culls, and mortality were recorded. All bird weights were recorded at 0, 11, 21, 24, 33 and 42 days. Weight gains, feed intake and feed conversion ratio (FCR) were derived for each feeding period.

N[C@@H](Cc1ccc(O)cc1)C(=O)O.[Fe+3] [FeTyr, ferric tyrosine]
Salmonella cfu/g of caeca at day 42 (FIG. 15) (Salmonella): positive effect on reducing Campylobacter infection
Campylobacter cfu/g of caeca at day 42 (FIG. 14) (Campylobacter [1]): positive effect on reducing Campylobacter infection
E. coli cfu/g of caeca at day 42 (FIG. 16) (E. coli; in feed): positive effect on reducing Campylobacter infection
levels of E. coli in poultry upon treatment (E. coli; poultry data): lower levels of E. coli
effect on growth performance in the absence of Campylobacter challenge, first 20 days ([2]; compared with control groups 1 and 2): positive effect
effect on MFCR at day 42 compared with positive control (FIG. 2) ([2]; treatment groups 3, 5, 6, 7 and 8, challenged with dirty litter): positive effect on MFCR
effect on growth: average body weight at day 42 compared with positive control (FIG. 1) ([2]; treatment groups 3, 5, 6, 7 and 8, challenged with dirty litter containing Campylobacter): positive effect on growth
Campylobacter cfu/g of caeca samples at day 42 compared with positive control (FIG. 4) (Campylobacter [3]; treatment groups 3 and 5-8): positive effect on reducing Campylobacter infection
Campylobacter cfu/g of bird droppings at day 42 compared with positive control (FIG. 3) (Campylobacter [3]; treatment groups 3 and 6-8): positive effect on reducing Campylobacter infection
MFCR at day 42 compared to control group (FIG. 13) [4]: improved MFCR values
average body weight at day 42 compared with control group (FIG. 12) [4]: higher average body weight
